From US20240366539A1, “METHODS FOR TREATING AUTISM SPECTRUM DISORDERS” (INSTITUT NATIONAL DE LA SANTÉ ET DE LA RECHERCHE MÉDICALE, priority 2021, published 2024)
Entries after “also recorded” stand apart in the source; their conditions may differ.

Columns and labels:
Oprm1^−/− mice [1] = assay: Direct social interaction test; format: in vivo, mouse
Procedure: (§1) Mice were treated with vehicle (NaCl 0.9%; ip, 10 or 20 ml/kg), NaBr (Sigma-Aldrich, Saint-Quentin Fallavier, France) administered either chronically (once a day, 10, 30, 70, 125, 250 and 500 mg/kg; i.p. or per os, in a volume of 20 ml/kg—except for combination with VU0155041: […]) or acutely (250 mg/kg, 20 ml/kg), KBr (Sigma-Aldrich, Saint-Quentin Fallavier, France; 145 mg/kg; i.p., 20 ml/kg), bumetanide (R&D systems, Minneapolis, USA, 0.5 and 2 mg/kg; i.p., 20 ml/kg) or VU0155041 (Cayman Chemicals, Ann Arbor, USA, once a day, i.p., 1 mg/kg, 10 ml/kg). […] When treatment was given chronically, behavioral testing started 8 days after beginning of daily administration. Treatment was maintained for 8 to 18 consecutive days (see timelines in FIGS. 1 and 4), allowing thorough behavioral phenotyping. On testing days, or when treatment was given acutely, drugs (or vehicle) were administered 30 min before behavioral assays.
When assessing effects of chronic administration, experiments were performed successively (timelines in FIGS. 1 and 4) (51, 60). Testing order was chosen to minimize the incidence of anxiety on later assays. Direct social interaction and novelty suppressed feeding were performed in 4 equal square arenas (open fields, 50×50 cm) separated by 35 cm-high opaque grey Plexiglas walls over a white Plexiglas platform (View Point, Lyon, France). Stimulus mice used for the three-chamber test were 8-14-week-old grouped-housed male or female wild-type mice, socially naive to the experimental animals.
Direct social interaction test. On testing day, a pair of unfamiliar mice (not cage mates, age-, sex- and treatment-matched) was introduced in each arena for 10 min (15 lx). Each arena received a black plastic floor (transparent to infrared). […] The mean duration of nose and paw contacts was calculated from previous data (61-63).

Oprm1^−/− mice [2] = assay: Three-chamber social preference test; format: in vivo, mouse
Procedure: as §1
Three-chamber social preference test. The test apparatus consisted of a transparent acrylic box (exterior walls blinded with black plastic film); partitions divided the box into three equal chambers (40×20×22.5 cm). Two sliding doors (8×5 cm) allowed transitions between chambers. Cylindrical wire cages (18×9 cm, 0.5 cm diameter-rods spaced 1 cm apart) were used to contain the mouse interactor and object (soft-toy mouse). The test was performed in low-light conditions (15 lx) to minor anxiety. Stimulus wild-type mice were habituated to confinement in wire cages for 2 days before the test (20 min/day). On testing day, the experimental animal was introduced to the middle chamber and allowed to explore the whole apparatus for a 10-min habituation phase (wire cages empty) after the sliding doors were raised. The experimental mouse was then confined back in the middle-chamber while the experimenter introduced an unfamiliar wild type age and sex-matched animal into a wire cage in one of the side-chambers and a soft toy mouse (8×10 cm) in the second wire cage as a control for novelty. Then the experimental mouse was allowed to explore the apparatus for a 10-min interaction phase. The time spent in each chamber, the time spent in nose contact with each wire cage (empty: habituation; containing a mouse or a toy: interaction), as well as the number of these nose contacts were scored a posteriori on video recordings using an ethological keyboard (Labwatcher®, View Point, Lyon, France) by trained experimenters. […] The relative position of stimulus mice (versus toy) was counterbalanced between groups.

Oprm1^−/− mice [3] = assay: Motor stereotypies; format: in vivo, mouse
Procedure: as §1
Motor stereotypies. To detect motor stereotypies in mutant versus wild-type animals, mice were individually placed in clear standard home cages (21×11×17 cm) filled with 3-cm deep fresh sawdust for 10 min (64). Light intensity was set at 30 lux. Trained experimenters scored numbers of head shakes, as well as rearing, burying, grooming, circling episodes and total time spent burying by direct observation.

Oprm1^−/− mice [4] = assay: Marble-burying; format: in vivo, mouse
Procedure: as §1
Marble-burying. Marble burying was used as a measure of perseverative behavior (68). Mice were introduced individually in transparent cages (21×11×17 cm) containing 20 glass marbles (diameter: 1.5 cm) evenly spaced on 4-cm deep fresh sawdust. To prevent escapes, each cage was covered with a filtering lid. Light intensity in the room was set at 40 lux. The animals were removed from the cages after 15 min, and the number of marbles buried more than half in sawdust was quoted.

Fmr1^−/− mice = assay: Y-maze exploration; format: in vivo, mouse; conditions: chronic NaBr 250 mg/kg once daily
Procedure: as §1
(§2) Y-maze exploration. Spontaneous alternation behavior was used to assess perseverative behavior (65-67). Each Y-maze consisted of three connected Plexiglas arms (15×15×17 cm) covered with distinct wall patterns (15 lx). Floors were covered with lightly sprayed fresh sawdust to limit anxiety.
(§3) To this purpose, we evaluated the effects of chronic NaBr administration at the dose of 250 mg/kg on autism-sensitive behaviors in these lines (FIG. 3A).

Shank3^Δex13-16−/− mice = assay: Y-maze exploration; format: in vivo, mouse; conditions: Shank3Δex13-16−/− mice; chronic NaBr 250 mg/kg once daily
Procedure: as §1, §2, §3

rat mGlu4 receptor = target: T1, rat mGlu4 receptor (Rattus norvegicus, UniProt P31423); assay: IP1 accumulation assay, mGlu4 signaling under glutamate stimulation; format: cell-based
T1 construct: expressed in transfected cells
T1 sequence (P31423 33-912): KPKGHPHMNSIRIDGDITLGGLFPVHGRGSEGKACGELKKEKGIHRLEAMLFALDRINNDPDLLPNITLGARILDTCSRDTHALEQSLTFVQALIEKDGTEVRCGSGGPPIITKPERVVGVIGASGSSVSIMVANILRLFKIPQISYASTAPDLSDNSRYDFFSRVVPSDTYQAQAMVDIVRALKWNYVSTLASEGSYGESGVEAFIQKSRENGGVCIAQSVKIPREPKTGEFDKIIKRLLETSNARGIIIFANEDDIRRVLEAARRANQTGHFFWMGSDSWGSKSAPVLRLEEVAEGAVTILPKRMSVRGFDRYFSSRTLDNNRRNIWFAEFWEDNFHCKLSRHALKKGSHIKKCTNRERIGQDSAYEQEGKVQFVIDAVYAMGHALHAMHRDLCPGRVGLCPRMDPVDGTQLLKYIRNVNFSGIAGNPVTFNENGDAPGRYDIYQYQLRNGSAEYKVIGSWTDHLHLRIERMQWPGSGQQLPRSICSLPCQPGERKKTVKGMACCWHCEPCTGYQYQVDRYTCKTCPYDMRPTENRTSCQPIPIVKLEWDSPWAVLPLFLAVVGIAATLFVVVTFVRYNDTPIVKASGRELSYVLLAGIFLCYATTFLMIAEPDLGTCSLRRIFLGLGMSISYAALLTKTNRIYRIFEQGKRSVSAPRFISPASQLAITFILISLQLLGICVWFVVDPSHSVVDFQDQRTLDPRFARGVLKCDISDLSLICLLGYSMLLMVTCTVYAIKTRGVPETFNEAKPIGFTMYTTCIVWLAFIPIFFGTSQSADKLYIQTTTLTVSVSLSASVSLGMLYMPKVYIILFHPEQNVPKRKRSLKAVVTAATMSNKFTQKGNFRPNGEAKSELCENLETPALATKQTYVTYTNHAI
Procedure: Human embryonic kidney (HEK) 293 cells were transiently transfected with rat mGlu4 receptor by electroporation together with a chimeric Gi/Gq protein to allow phospholipase activation and EAAC1, a glutamate transporter, to avoid influence of extracellular glutamate. […] 96-well plate (Greiner Bio-One) at the density of 100,000 cells per well and for IPOne assay in a PLO-coated black 96-well plate (Greiner Bio-One) at the density of 50,000 cells per well. Cells were cultured in DMEM (Gibco™, Life Technologies), supplemented with 10% fetal bovine serum. Medium was changed by GlutaMAX (Gibco™, Life Technologies) to reduce extracellular glutamate concentration 3 h before experiment. […]
IP1 accumulation assay: Inositol monophosphate accumulation was determined using the IP-One HTRF (Homogenous Time Resolved Fluorescence) kit (Cisbio Bioassays, Perkin Elmer, Codolet, France) according to the manufacturer's recommendations (72). […]
Data were analyzed using Prism 6 software (GraphPad Software, San Diego, CA, USA). […] Statistical differences between pEC50, ΔpEC50 and Emax were determined using a one-way analysis of variance followed by Tukey's post-test.
We measured mGlu4 signaling under glutamate stimulation in HEK293T cells transiently expressing mGlu4 receptors and Gαqi9, a Gi/Gq chimeric G-protein (57) that allows mGlu4 to activate the phosphoinositide pathway.

[5] = Oprm1−/− mice, chronic once daily, NaBr 10-500 mg/kg (effect from 125 mg/kg) or bumetanide 0.5 and 2 mg/kg, D9
[6] = Oprm1−/− mice, one week after cessation of chronic treatment (NaBr over 70 mg/kg, highest doses; bumetanide depending on the dose)
[7] = chronic NaBr (since lowest dose, 10 mg/kg) or bumetanide 0.5 and 2 mg/kg
[8] = Oprm1+/+ mice, chronic NaBr 10-500 mg/kg
[9] = Oprm1−/− mice, chronic NaBr 10-500 mg/kg or bumetanide 0.5 and 2 mg/kg

## [Br-].[Na+] [NaBr, sodium bromide]
Oprm1^−/− mice [1]; Oprm1+/+ mice, chronic once daily, NaBr 10-500 mg/kg or bumetanide 0.5 and 2 mg/kg
  social interaction in wild-type controls: had no detectable effect in Oprm1^+/+ mice
Oprm1^−/− mice [1]; Oprm1−/− mice, NaBr 70 mg/kg, VU0155041 1 mg/kg, alone or combined, once daily, chronic
  social interaction behavioral parameters: had no detectable effects on behavioral parameters
Oprm1^−/− mice [1]; Oprm1−/− mice, chronic once daily i.p., NaBr 10-500 mg/kg or bumetanide 0.5 and 2 mg/kg, D9
  social interaction deficit: from the dose of 125 mg/kg dose-dependently relieved this deficit
Oprm1^−/− mice [1]; Oprm1−/− mice, chronic once daily, NaBr 10-500 mg/kg (effect from 125 mg/kg) or bumetanide 0.5 and 2 mg/kg (effect at low dose), D9
  number of nose contacts: restored number
Oprm1^−/− mice [1]; [5]
  mean duration of nose contacts: restored
  mean duration of paw contacts: normalized
  number of paw contacts: normalized number
Oprm1^−/− mice [1]; Oprm1−/− mice, chronic once daily, NaBr 10-500 mg/kg or bumetanide 0.5 and 2 mg/kg, D9
  grooming after social contact: normalized the frequency of grooming after social contact in mutants, since the dose of 70 mg/kg
Oprm1^−/− mice [1]; [6]
  duration of nose contacts: preserved restoration of the duration of nose contacts
  grooming after social contact: maintained suppression of grooming after social contact
Oprm1^−/− mice [1]; Oprm1−/− mice, single acute injection of NaBr 250 mg/kg, data not shown
  social interaction parameters: had little effect on social interaction parameters
Oprm1^−/− mice [1]; Oprm1−/− mice, two weeks after cessation of chronic NaBr, data not shown
  relieving effects on social interaction: had mostly vanished after two weeks
Oprm1^−/− mice [1]; chronic once daily, NaBr 10-500 mg/kg (both mouse lines) or bumetanide (at low dose), D9
  number of following episodes: increased the number of following episodes in both mouse lines
Oprm1^−/− mice [2]; NaBr 70 mg/kg or VU0155041 1 mg/kg, once daily, chronic
  frequency of nose contacts with the mouse versus the toy: sufficient to restore more frequent nose contacts with the mouse versus the toy
Oprm1^−/− mice [2]; NaBr 70 mg/kg, VU0155041 1 mg/kg, alone or combined, once daily, chronic
  duration of nose contacts with the mouse versus the toy: fully restored longer nose contacts with the mouse
Oprm1^−/− mice [2]; chronic NaBr 10-500 mg/kg once daily
  social preference: completely restored social preference in mutant mice
Oprm1^−/− mice [2]; chronic NaBr 10-500 mg/kg or bumetanide 0.5 and 2 mg/kg
  social preference ratio: normalization of their preference ratio from 10 mg/kg NaBr and over
Oprm1^−/− mice [2]; [7]
  duration of nose contacts with the mouse versus the toy: longer
  number of nose contacts with the mouse versus the toy: more frequent
Oprm1^−/− mice [3]; [8]
  number of grooming episodes in wild-type controls: dose-dependently increased the number of grooming episodes; also recorded: at 500 mg/kg increased the frequency of grooming episodes and head shakes
  number of head shakes in wild-type controls: dose-dependently increased; also recorded: at 500 mg/kg increased the frequency of grooming episodes and head shakes
Oprm1^−/− mice [3]; [9]
  number of head shakes: decreased under NaBr treatment since the lowest dose; also recorded: less consistently reduced the number of head shakes (doses over 125 mg/kg)
  stereotypic circling episodes: decreased under NaBr treatment since the lowest dose
Oprm1^−/− mice [3]; both mouse lines (Oprm1−/− and Oprm1+/+), chronic NaBr or bumetanide
  number of rearing episodes: increased the number of rearing episodes in a dose-dependent manner
Oprm1^−/− mice [4]; [9]
  excessive marble burying: did not suppressed excessive burying in mutant mice
Oprm1^−/− mice [4]; both mouse lines, chronic NaBr
  number of buried marbles, global treatment effect: globally increased burying
Fmr1^−/− mice
  perseverative same arm returns: suppressed under chronic bromide
Shank3^Δex13-16−/− mice
  perseverative same arm returns: suppressed under chronic bromide
Rat mGlu4 receptor; HEK293 cells, mGlu4 + Gαqi9, bromide
  increase in glutamate efficacy (Emax, maximal IP1 production): 60±10%
Rat mGlu4 receptor; addition of Br− (so in the source)
  ΔpEC50 of glutamate between physiological Cl− concentration and after addition of Br−: 0.42±0.03
